Reference: paper PMC10931833, “Simultaneous Purification of Human Interferon Alpha-2b and Serum Albumin Using Bioprivileged Fluorinated Ionic Liquid-Based Aqueous Biphasic Systems” (International Journal of Molecular Sciences, 2024)

Assays:
[1] = biological target: T1, BSA (Bos taurus, UniProt P02769); assay: DSC thermal unfolding of BSA in water and aqueous solutions of ABS phase-forming components; type: physicochemical, bovine; conditions: for Tm / ΔG / ΔHcal / ΔHcal/ΔHvH / ΔHvH / ΔS: 1.0 mg/mL BSA
T1 construct: purchased Millipore Sigma-Aldrich
Procedure: Differential scanning calorimetry (DSC) measurements were performed with Nano DSC equipment, as detailed in Section 3, and used to determine the melting temperature (T m ) and enthalpy ( Δ H) of protein unfolding. DSC analyzes changes in the structure and stability of proteins as thermal transitions at the nanoscale. Using DSC to measure heat capacity as a function of the temperature of a well-studied protein such as BSA provides keen insights into folding and unfolding processes, as well as factors affecting stability. Due to the volume and concentration requirements of the DSC technique, and the constraints in available quantities of IFN- α 2b the DSC experiments on the ABS phase-forming components’ effect on the structural properties of proteins were attained only for BSA.
The T m of BSA, which corresponds to the thermal unfolding transition midpoint, was measured in the absence and presence of the ABS phase-forming components at increasing concentrations (see Figure 1 and Table 2).

[2] = biological target: T1, BSA; assay: CD thermal unfolding (Tm) of BSA; type: physicochemical, bovine; conditions: 1.0 mg/ml BSA, 200 mM component aqueous solution
Source text: The thermal stability assessed by far-UV CD is solely determined through the thermal decay of the alpha-helical structure.

[3] = biological target: T2, IFN-α2b (Homo sapiens, UniProt P01563); assay: CD thermal unfolding (Tm) of IFN-α2b; type: physicochemical; conditions: 0.125 mg/ml IFN-α2b, 200 mM component aqueous solution
T2 construct: single non-glycosylated polypeptide chain with a molecular weight of 19 kDa, comprising 165 amino acids; purchased Millipore Sigma-Aldrich SRP4595-100UG; host or cells: E. coli
Procedure: The same analyses attained for 208 nm and 192 nm are illustrated in Figures S5 and S6 in the Supplementary Materials. The corresponding T m values are estimated by fitting to a sigmoid with four parameters (one-way ANOVA, significance level of 0.05) and summarized in Table S2 in the Supplementary Materials. The CD T m of 0.125 mg/mL native IFN- α 2b is in good agreement with what was previously reported. […] The estimated T m values are summarized in Table S2 in the Supplementary Materials. The same analysis is attained for 208 nm and 192 nm, as depicted in Figures S5 and S6 in the Supplementary Materials. All the CD T m results are summarized in Table S2 in the Supplementary Materials. The thermal stability assessed by far-UV CD is solely determined through the thermal decay of the alpha-helical structure.
The same analysis was attained for 208 nm and 192 nm as illustrated in Figure S13 in the Supplementary Materials. The corresponding T m values are depicted in Table 5, and were estimated by fitting a sigmoid with four parameters (one-way ANOVA, with a significance level of 0.05).

[4] = biological target: T2, IFN-α2b; assay: Far-UV CD secondary structure of IFN-α2b (CONTIN-LL deconvolution); type: physicochemical; conditions: 0.125 mg/mL IFN-α2b, 200 mM component, 25 °C
Source text: Circular dichroism (CD) is widely used to study the secondary structures of proteins, peptides and nucleic acids, because it requires a low concentration sample, is a nondestructive method, allows studying a wide range of variables (temperature, pH, etc.), and provides information on the effect of added ligands on protein folding and interactions.
Circular dichroism (CD) spectra were collected in a 10 mm quartz cuvette and a Chirascan spectropolarimeter (Applied Photophysics, UK) at room temperature. All CD spectra were recorded in the far-UV range of 190 to 260 nm at scan rates of 50 nm/min, with 4 accumulations, and a response time of 3 s; CD spectra were collected. For each CD experiment, two distinct duplicates were acquired and combined. […] Spectral deconvolution was carried out with DichroWeb using the CONTIN-LL deconvolution algorithm with the SMP180 reference set.

[5] = design: method as in earlier work; conditions: aqueous solution at 25 °C, ref 3 (supplement; main text ref 71), cited from earlier work
[6] = ITC ([C2C1Im][C4F9SO3]) or conductometry ([N1112(OH)][C4F9SO3])

T1 sequence (P02769 25-607): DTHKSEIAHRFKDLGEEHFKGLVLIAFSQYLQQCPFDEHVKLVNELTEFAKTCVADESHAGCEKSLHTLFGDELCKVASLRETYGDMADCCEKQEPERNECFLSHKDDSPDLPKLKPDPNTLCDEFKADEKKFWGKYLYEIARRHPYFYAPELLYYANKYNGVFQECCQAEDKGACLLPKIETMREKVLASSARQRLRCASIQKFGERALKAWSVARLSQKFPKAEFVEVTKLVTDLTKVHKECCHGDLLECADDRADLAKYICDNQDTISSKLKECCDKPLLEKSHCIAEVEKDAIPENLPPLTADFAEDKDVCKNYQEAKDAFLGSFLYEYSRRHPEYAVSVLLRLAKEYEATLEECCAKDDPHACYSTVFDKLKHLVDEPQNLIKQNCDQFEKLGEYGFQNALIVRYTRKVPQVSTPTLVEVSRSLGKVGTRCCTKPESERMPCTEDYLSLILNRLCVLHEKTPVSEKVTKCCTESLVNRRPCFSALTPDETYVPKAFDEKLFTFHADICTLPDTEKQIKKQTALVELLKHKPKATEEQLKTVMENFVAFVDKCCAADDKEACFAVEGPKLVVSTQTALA
T2 sequence (P01563 24-188): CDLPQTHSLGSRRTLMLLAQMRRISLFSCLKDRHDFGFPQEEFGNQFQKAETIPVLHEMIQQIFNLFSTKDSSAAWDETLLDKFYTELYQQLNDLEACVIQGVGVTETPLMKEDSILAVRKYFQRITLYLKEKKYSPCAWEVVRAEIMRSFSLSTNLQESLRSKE

In the case of `CCCCn1cc[n+](C)c1.O=S(=O)([O-])C(F)(F)F` [[C4C1Im][CF3SO3], 1-butyl-3-methylimidazolium trifluoromethanesulfonate], the Tm ([1]; 0.1 mM component) is reported as 74.54 °C, the ΔG ([1]; 0.1 mM component) is reported as 17.42 kcal/mol and the ΔHcal ([1]; 0.1 mM component) is reported as 122.6 kcal/mol. The ΔHcal/ΔHvH ([1]; 0.1 mM component) was 0.946, the ΔHvH ([1]; 0.1 mM component) was 129.6 kcal/mol and the ΔS ([1]; 0.1 mM component) was 1.476 KJ/(mol.K). It also gave a Tm ([1]; 1 mM component) of 75.31 °C, a ΔG ([1]; 1 mM component) of 14.67 kcal/mol and a ΔHcal ([1]; 1 mM component) of 100.9 kcal/mol. The ΔHcal/ΔHvH ([1]; 1 mM component) was 0.987, the ΔHvH ([1]; 1 mM component) was 102.2 kcal/mol and the ΔS ([1]; 1 mM component) was 1.210 KJ/(mol.K). It also gave a Tm ([1]; 5 mM component) of 81.43 °C, a ΔG ([1]; 5 mM component) of 27.34 kcal/mol and a ΔHcal ([1]; 5 mM component) of 171.4 kcal/mol. The ΔHcal/ΔHvH ([1]; 5 mM component) was 1.069, the ΔHvH ([1]; 5 mM component) was 160.3 kcal/mol and the ΔS ([1]; 5 mM component) was 2.021 KJ/(mol.K). For the same compound, the Tm ([1]; 10 mM component) was 79.02 °C, the ΔG ([1]; 10 mM component) was 19.07 kcal/mol and the ΔHcal ([1]; 10 mM component) was 123.7 kcal/mol. For the same compound, the ΔHcal/ΔHvH ([1]; 10 mM component) was 1.024, the ΔHvH ([1]; 10 mM component) was 120.7 kcal/mol and the ΔS ([1]; 10 mM component) was 1.468 KJ/(mol.K). For the same compound, the Tm ([1]; 25 mM component) was 72.02 °C, the ΔG ([1]; 25 mM component) was 11.14 kcal/mol and the ΔHcal ([1]; 25 mM component) was 80.45 kcal/mol. The ΔHcal/ΔHvH ([1]; 25 mM component) was 0.992, the ΔHvH ([1]; 25 mM component) was 81.09 kcal/mol and the ΔS ([1]; 25 mM component) was 0.973 KJ/(mol.K). It also gave a Tm ([1]; 55 mM component) of 72.44 °C, a ΔG ([1]; 55 mM component) of 12.4 kcal/mol and a ΔHcal ([1]; 55 mM component) of 89.82 kcal/mol. For the same compound, the ΔHcal/ΔHvH ([1]; 55 mM component) was 0.960, the ΔHvH ([1]; 55 mM component) was 93.55 kcal/mol and the ΔS ([1]; 55 mM component) was 1.086 KJ/(mol.K). It also gave a Tm ([1]; 120 mM component) of 76.32 °C, a ΔG ([1]; 120 mM component) of 16.9 kcal/mol and a ΔHcal ([1]; 120 mM component) of 114 kcal/mol. The ΔHcal/ΔHvH ([1]; 120 mM component) was 0.969, the ΔHvH ([1]; 120 mM component) was 117.7 kcal/mol and the ΔS ([1]; 120 mM component) was 1.363 KJ/(mol.K). The “effect on BSA Tm (DSC)” value ([1]; tested concentration range vs water) was “maintained”, the “Tm, Ellipticity 192 nm” value [2] was 75.050 °C and the “Tm, Ellipticity 208 nm” value [2] was 77.089 °C. The “Tm, Ellipticity 222 nm” value [2] was 74.833 °C.

In the case of `CCn1cc[n+](C)c1.O=S(=O)([O-])C(F)(F)C(F)(F)C(F)(F)C(F)(F)F` [1-ethyl-3-methylimidazolium perfluorobutane sulfonate], the “Tm, Ellipticity 192 nm” value [3] is reported as 53.633 °C, the “Distorted Alpha Helix” value [4] is reported as 0.153 and the “Distorted Beta Sheet” value [4] is reported as 0.069. For the same compound, the “Regular Alpha Helix” value [4] was 0.292, the “Regular Beta Sheet” value [4] was 0.05 and the Turns [4] was 0.204. It also gave an Unordered [4] of 0.232, a Tm ([1]; 0.1 mM component) of 75.55 °C and a ΔG ([1]; 0.1 mM component) of 17.28 kcal/mol. For the same compound, the ΔHcal ([1]; 0.1 mM component) was 120.2 kcal/mol, the ΔHcal/ΔHvH ([1]; 0.1 mM component) was 1.028 and the ΔHvH ([1]; 0.1 mM component) was 117 kcal/mol. The ΔS ([1]; 0.1 mM component) was 1.445 KJ/(mol.K), the Tm ([1]; 1 mM component) was 75.62 °C and the ΔG ([1]; 1 mM component) was 20.41 kcal/mol. It also gave a ΔHcal ([1]; 1 mM component) of 141.5 kcal/mol, a ΔHcal/ΔHvH ([1]; 1 mM component) of 1.050 and a ΔHvH ([1]; 1 mM component) of 134.8 kcal/mol. For the same compound, the ΔS ([1]; 1 mM component) was 1.700 KJ/(mol.K), the Tm ([1]; 5 mM component) was 80.59 °C and the ΔG ([1]; 5 mM component) was 30.02 kcal/mol. The ΔHcal ([1]; 5 mM component) was 190.7 kcal/mol, the ΔHcal/ΔHvH ([1]; 5 mM component) was 0.967 and the ΔHvH ([1]; 5 mM component) was 197.2 kcal/mol. For the same compound, the ΔS ([1]; 5 mM component) was 2.255 KJ/(mol.K), the Tm ([1]; 10 mM component) was 80.94 °C and the ΔG ([1]; 10 mM component) was 29.09 kcal/mol. The ΔHcal ([1]; 10 mM component) was 183.6 kcal/mol, the ΔHcal/ΔHvH ([1]; 10 mM component) was 1.061 and the ΔHvH ([1]; 10 mM component) was 173.1 kcal/mol. For the same compound, the ΔS ([1]; 10 mM component) was 2.168 KJ/(mol.K), the Tm ([1]; 25 mM component) was 82.57 °C and the ΔG ([1]; 25 mM component) was 32.53 kcal/mol. It also gave a ΔHcal ([1]; 25 mM component) of 200.3 kcal/mol, a ΔHcal/ΔHvH ([1]; 25 mM component) of 0.972 and a ΔHvH ([1]; 25 mM component) of 205.9 kcal/mol. For the same compound, the ΔS ([1]; 25 mM component) was 2.354 KJ/(mol.K), the Tm ([1]; 55 mM component) was 84.28 °C and the ΔG ([1]; 55 mM component) was 39.89 kcal/mol. The ΔHcal ([1]; 55 mM component) was 239.24 kcal/mol, the ΔHcal/ΔHvH ([1]; 55 mM component) was 1.105 and the ΔHvH ([1]; 55 mM component) was 216.5 kcal/mol. The ΔS ([1]; 55 mM component) was 2.798 KJ/(mol.K), the Tm ([1]; 120 mM component) was 86.15 °C and the ΔG ([1]; 120 mM component) was 33.99 kcal/mol. It also gave a ΔHcal ([1]; 120 mM component) of 198.6 kcal/mol, a ΔHcal/ΔHvH ([1]; 120 mM component) of 1.051 and a ΔHvH ([1]; 120 mM component) of 189 kcal/mol. The ΔS ([1]; 120 mM component) was 2.310 KJ/(mol.K), the “increase of BSA Tm (DSC)” value ([1]; FIL at the highest concentration (120 mM) vs water) was “approximately 11 °C” and the “1st CAC” value [5, 6] was 14.40 mM. For the same compound, the “2nd CAC” value [5, 6] was 34.48 mM, the “3rd CAC” value [5, 6] was 76.54 mM and the “4th CAC” value ([5]; ITC) was 106.09 mM.
